Assay results taken from patent US20190133997A1, “ARTEMISININ ANALOG, AND USE, METHOD, AND COMPOSITION FOR PROMOTING LIPID CATABOLISM AND IMPROVING SUGAR METABOLISM” (FUDAN UNIVERSITY, priority 2016, published 2019).

Experiments:
BMP4-directed C3H10T1/2 = experiment: Artemether on BMP4-directed C3H10T1/2 differentiation (morphology, Western blot, MitoTracker Green); assay type: cell-based
Experimental: 7.5×10^5 C3H10T1/2 were seeded in a 3.5 cm cell culture dish, and cultured for 3-5 days in a maintenance medium. On the next day of seeding, BMP4 (at a final concentration of 20 ng/ml) was added to the medium to allow the cells to proliferate to contact inhibition. Two days after the contact inhibition was reached, the medium was changed to induced differentiation medium, and the induced mixture (0.5 mMol/L Mix, 1 μMol/L Dex, 1 ng/ml insulin, 100 nMol/L indometacin, 1 nM T3) was added at the same time. This day was defined as Day 0 of differentiation. After 2 days of induction, fresh induced differentiation medium was replaced, and 1 ng/ml insulin and 1 nMol/L T3 were added. After another 2 days of culture, the fresh medium was replaced every other day until the culture was differentiated to Day 8 at which time the cells were mature. At this time, the differentiated and mature cells were white adipocytes.
7.5×10^5 C3H10T1/2 were seeded in a 3.5 cm cell culture dish, and cultured for 3-5 days in a maintenance medium. On the next day of seeding, BMP7 (at a final concentration of 100 ng/ml) was added to the medium to allow the cells to proliferate to contact inhibition. Two days after the contact inhibition was reached, the medium was changed to induced differentiation medium, and the induced mixture (0.5 mM Mix, 1 μM Dex, 1 ng/ml insulin, 100 nM indometacin, 1 nM T3) was added at the same time. This day was defined as Day 0 of differentiation. After 2 days of induction, fresh induced differentiation medium was replaced, and 1 ng/ml insulin and 1 nM T3 were added. After another 2 days of culture, the fresh medium was replaced every other day until the culture was differentiated to Day 8 at which time the cells were mature. At this time, the cells differentiated to mature were brown adipocytes.
On Day 0 of differentiation, that is, when the induced differentiation mixture was added, the compound was added to the medium at a storage concentration of 10 mMol/L, and the final concentrations were […], respectively. When the fresh medium was replaced, the corresponding compound was supplemented, and the compound was always with the cells until the cells differentiated to mature.
C3H10T1/2 differentiated to mature was induced in a 3.5 cm culture dish, with the method of differentiation referring to Method 2.4.1. 300 μl Trizol was added to fully lyse the cells, and the lysate was transferred into a 1.5 ml centrifuge tube and heated at 100° C. for 10 min. The lysate was centrifuged at 13000 g for 10 min at 4° C., the lipid in the upper layer was removed, and the clarified lysate in the middle layer was transferred into a new centrifuge tube. 2.5 μl lysate was taken and quantified by BCA method, and 200 μl lysate was mixed with 50 μl loading buffer, heated at 100° C. for 10 min, and stored at −20° C. until use.
[…] C3HOT1/2 protein was loaded onto 10% polyacrylamide gel, and electrophoresis was carried out, with electrophoresis being carried out on base gel at 80V, and on separating gel at 100V, until the target band was separated. The protein was transferred to a PVDF membrane in an ice bath at 100 V for 100 min. After the transfer was completed, it was blocked for 1 hr in 5% skim milk prepared with TBST (TBS buffer+0.5% Tween), and incubated with specific antibodies overnight at 4° C. The next day, the PVDF membrane was washed three times with TBST at room temperature for 10 min, incubated with the corresponding secondary antibody at room temperature for 1 hr, then washed three times with TBST at the same condition as that of primary antibody, incubated with chemiluminescent reagent at room temperature for 1 min, detected with ImageQuant LAS4000 Mini Automatic chemiluminescence apparatus and exposed, and the results were recorded.
C3H10T1/2 differentiated to mature was induced in a 3.5 cm culture dish. The medium was removed and 1 ml PBS was added. […]

[1] = Intraperitoneal artemether, growth of healthy mice on normal diet; assay type: in vivo, Male C57BL/6J mice; settings: intraperitoneal 20 mg/kg twice a week, eight weeks, vs control
Experimental: The mice were breeded in the SPF animal laboratory of the Laboratory Animal Center of Fudan University at a room temperature of 21° C.-23° C. with a 12-hour light/dark cycle. When the mice were grown to 8-week old, they were randomly divided into a control group and an administration group, with 8 mice in each group. Mice in administration group were injected intraperitoneally with artemether. Artemether for intraperitoneal injection was stored at 4° C. in coconut oil at a storage concentration of 6 mg/ml (20 mMol/L), and protected from light. Mice in administration group were injected with artemether at a dose of 20 mg/kg weight. Mice in control group were injected with 100 μl coconut oil. Administration was twice a week for eight weeks and the weight of the mice was recorded weekly.

high fat-fed mice [2] = experiment: Subcutaneous artemether, weight gain induced by high-fat diet; assay type: in vivo, Male C57BL/6J mice; settings: eight weeks
Experimental: The mice were breeded in the SPF animal laboratory of the Laboratory Animal Center of Fudan University at a room temperature of 21° C.-23° C. with a 12-hour light/dark cycle. […] When the mice were grown to 8-week old, they were randomly divided into a control group and an administration group, with 8 mice in each group. While the mice were fed with a high-fat diet, artemether was injected subcutaneously. Artemether was diluted in PBS at a concentration of […], and injected into bilateral inguinal region, with 200 μl being injected into each side. Mice in control group were injected with the same volume of PBS. Administration was continued for eight weeks and the weight of mice was recorded weekly.

high fat-fed mice [3] = experiment: Intraperitoneal artemether, serum lipid indicators in high-fat diet mice; assay type: in vivo, Male C57BL/6J mice; settings: intraperitoneal 20 mg/kg twice a week, eight weeks
Experimental: The mice were breeded in the SPF animal laboratory of the Laboratory Animal Center of Fudan University at a room temperature of 21° C.-23° C. with a 12-hour light/dark cycle. […] When the mice were grown to 8-week old, they were randomly divided into a control group and an administration group, with 8 mice in each group. While the mice were fed with a high-fat diet, artemether was injected intraperitoneally. Artemether for intraperitoneal injection was stored at 4° C. in coconut oil at a storage concentration of 6 mg/ml (20 mMol/L), and protected from light. Mice in administration group were injected with artemether at a dose of 20 mg/kg weight. Administration was twice a week for eight weeks.
The mice were anesthetized with 10% chloral hydrate and blood was taken from the orbit. The whole blood was centrifuged at 300 rpm for 5 min at 4° C.
Serum was taken and the serum indicators were measured by lipid calibrator Cfas Lipid, high-density lipoprotein Cfas, and low density lipoprotein Cfas, as well as detection kits for related indicators.

[4] = artemether 5, 10, 15 Mol/L, Western blot, β-actin reference, concentration-dependent tendency

For CO[C@H]1O[C@@H]2O[C@@]3(C)CC[C@H]4[C@H](C)CC[C@@H]([C@H]1C)[C@@]24OO3 [artemether], the “protein level of PGC1α” value (BMP4-directed C3H10T1/2; [4]) was “increased”, the “protein level of PRDM16” value (BMP4-directed C3H10T1/2; [4]) was “increased” and the “protein level of UCP1” value (BMP4-directed C3H10T1/2; [4]) was “increased”. The “protein level of CytoC” value (BMP4-directed C3H10T1/2; artemether 5, 10, 15 μMol/L, Western blot, β-actin reference, concentration-dependent tendency) was “increased”, the “mitochondrial biosynthesis (MitoTracker Green)” value (BMP4-directed C3H10T1/2; artemether 15 μMol/L) was “significantly enhanced” and the “cell morphology of BMP4-directed C3H10T1/2” value (BMP4-directed C3H10T1/2; artemether 15 μMol/L during differentiation, similar to BMP7-directed cell morphology) was “exhibited brown fat-like characteristics”. For the same compound, the “weight gain of healthy mice” value [1] was “not significantly different”, the “weight of healthy mice” value [1] was “no difference” and the weight of mice (high fat-fed mice [2]; subcutaneous injection 15 Mol/L in PBS, 200 μl each inguinal side, statistically different after six weeks) was “significantly lower than that of mice in control group”. For the same compound, the “weight gain of mice” value (high fat-fed mice [2]; subcutaneous injection) was “significantly slower than that of mice in control group”, the Serum cholesterol (high fat-fed mice [3]) was “significantly decreased” and the “high-density lipoprotein (HDL) in the serum” value (high fat-fed mice [3]) was “not different from the control group”. The “serum low density lipoprotein (LDL)” value (high fat-fed mice [3]) was “significantly decreased” and the “triglyceride in the serum” value (high fat-fed mice [3]) was “not different from the control group”.
